Reference: ChEMBL document CHEMBL4270652, “Design, synthesis, and biological activity of substituted 2-amino-5-oxo-5H-chromeno[2,3-b]pyridine-3-carboxylic acid derivatives as inhibitors of the inflammatory kinases TBK1 and IKKε for the treatment of obesity” (Bioorg Med Chem, 2018)
In brackets after ≈: the same amount, converted by molar mass. Activity calls are given as the source filed them. The rule behind the calls is not given here.

Experiments:
physchem = conditions: PBS, pH 7.4
Description: Thermodynamic aqueous solubility in PBS of pH 7.4 after overnight incubation by chemiluminescent nitrogen detection

Mus musculus [1] = assay: Antidiabetic activity in C57BL/6 obese mouse model assessed as reduction in blood glucose level at 25 mg/kg administered daily via oral gavage measured post 3 weeks of treatment by glucose tolerance test; format: functional, organism-based
Mus musculus [2] = assay: Antiobesity activity in C57BL/6 obese mouse model assessed as body weight loss at 25 mg/kg administered daily via oral gavage measured post 4 weeks of treatment; format: functional, organism-based
Mus musculus [3] = assay: Induction of insulin-induced hypoglycemia in C57BL/6 obese mouse model at 25 mg/kg administered daily via oral gavage measured post 4 weeks of treatment by insulin tolerance test; format: functional, organism-based
Mus musculus [4] = assay: Increase in serum IL6 levels in C57BL/6 obese mouse model at 25 mg/kg administered via oral gavage measured 6 hrs post treatment by ELISA; format: functional, organism-based

`CC(C)c1ccc2c(=O)c3cc(C(=O)O)c(N)nc3oc2c1` gave a solubility thermodynamic (physchem) of 19.1 µM (≈ 5.7 µg/mL).
Work on `CC(C)c1cc2c(=O)c3cc(C(=O)O)c(N)nc3oc2cc1F` yielded a solubility thermodynamic (physchem) of 13.7 µM (≈ 4.33 µg/mL).
In the case of `Nc1nc2oc3ccc(C4CCCCC4)cc3c(=O)c2cc1C(=O)O`, the Activity (Mus musculus [1]) is reported as “Active”, the Activity (Mus musculus [2]) is reported as “Active” and the solubility thermodynamic (physchem) is reported as 94.4 µM (≈ 31.9 µg/mL). For the same molecule, the Activity (Mus musculus [3]) was “Active” and the Activity (Mus musculus [4]) was “Active”.
Work on `CC(C)c1cccc2oc3nc(N)c(C(=O)O)cc3c(=O)c12` yielded a solubility thermodynamic (physchem) of 229 µM (≈ 68.4 µg/mL).
With `CC(C)c1ccc2oc3nc(N)c(C(=O)O)cc3c(=O)c2c1` the Activity (Mus musculus [1]) was “Active”, the Activity (Mus musculus [3]) was “Active” and the Activity (Mus musculus [4]) was “Active”.
`CC(C)CCc1ccc2oc3nc(N)c(C(=O)O)cc3c(=O)c2c1` showed a solubility thermodynamic (physchem) of 119 µM (≈ 38.8 µg/mL).
`Nc1nc2oc3ccc(C4CCC(=O)CC4)cc3c(=O)c2cc1C(=O)O` showed a solubility thermodynamic (physchem) of less than 1.1 µM.
For `CN(C)c1ccc2oc3nc(N)c(C(=O)O)cc3c(=O)c2c1`, the solubility thermodynamic (physchem) was 76.8 µM (≈ 23 µg/mL).
Molecule `CC(C)c1cc2c(=O)c3cc(C(=O)O)c(N)nc3oc2cn1` has a solubility thermodynamic (physchem) of 77.9 µM (≈ 23.3 µg/mL).
`CC(=O)N1CCC(c2ccc3oc4nc(N)c(C(=O)O)cc4c(=O)c3c2)CC1` gave a solubility thermodynamic (physchem) of 121 µM (≈ 46 µg/mL).
`Nc1nc2oc3ccc(C4CCSCC4)cc3c(=O)c2cc1C(=O)O` gave a solubility thermodynamic (physchem) of 61.3 µM (≈ 21.8 µg/mL).
`CC(C)Cc1ccc2oc3nc(N)c(C(=O)O)cc3c(=O)c2c1` gave a solubility thermodynamic (physchem) of 179 µM (≈ 55.8 µg/mL).
